{
  "source": "patent US20180064829A1",
  "about": "“FLUORESCENT BISPHOSPHONATE ANALOGS” (University of Southern California, priority 2015, published 2018)",
  "key": {"[1]": {"test": "pKa and protonation status of the heterocyclic nitrogen", "format": "physicochemical", "conditions": "pH 6.0; calculated by Henderson-Hasselbalch equation", "description": "The nucleophilicity and Lewis basicity of the nitrogen atom of the three heterocyclic N-BPs studied in this report vary, and these properties appear to be the major determinants of their conjugation reactivity. Thus, the ‘magic linker’ methodology for RIS required modification for ZOL (1d), MIN (1e), and their related analogues (1f). […] The protonation status of the heteroatom at different pH is also critical to the reactivity. […] Under such conditions, more than 50% (˜71.3% calculated) of the nitrogen of RIS will be deprotonated, and able to attack the epoxide ring nucleophilically. However, at pH 6.0, only 18% of the nitrogen of ZOL (22% for MIN) is deprotonated, thus the reactions were very slow (2d) at pH 6.0. At pH 7.0-7.5, reaction was more rapid, but the regioselectivity (N-alkylation vs. O-alkylation) for 1d, 1e, 1f was not as good as for RIS and its analogues (1a, 1b, 1c); 10-20% of side products could be observed, which were confirmed by HPLC, NMR and MS to be the products of N,O(P)-dialkylation (O-alkylation occurs between the phosphonate/carboxylate group of the drug and the epoxide). The reaction rate of MinPC (1f)-epoxide (5) coupling was even slower than ZOL under the same reaction conditions (same reactant ratio, pH 7.5, 40-45° C.), which might be due to a steric effect from the large heterocycle. In addition, the percent of side products was higher and O-alkylation products were also observed in the reaction mixture.\nThe following publications are incorporated by reference herein in their entirety: • [1] a) R. G. G. Russell, N. B. Watts, F. H. Ebetino, M. J. Rogers, Osteoporos. Int. 2008, 19, 733-759; b) F. Ebetino, A. Hogan, S. Sun, M. Tsoumpra, X. Duan, J. Triffitt, A. Kwaasi, J. Dunford, B. Barnett, U. Oppermann, M. Lundy, A. Boyde, B. Kashemirov, C. McKenna, R. Russell, Bone 2011, 49 20-33. • [2] a) I. Reid, M. Bolland, A. Grey, Bone 2007, 41, 318-320; b) A. Siddiqi, A. Payne, S. Zafar, Oral Surg. Oral Med. Oral Pathol. Oral Radiol. Endod. […]"}, "[2]": {"conditions": "parent compounds, ref. [23]; cited from earlier work"}, "[3]": {"tested_on": "unprenylated Rap1A (uRap1A)", "conditions": "PC analogues versus N-BPs; cited from earlier work"}, "[4]": {"test": "UV-VIS absorption and fluorescence emission spectra", "format": "physicochemical", "conditions": "0.1M phosphate buffer (1x PBS for 7d5); ± 1 nm error", "procedure": "All labeled samples were dissolved in water and diluted with 0.1 M phosphate buffer or 1×PBS (for 7d5). Assuming that the labeled bisphosphonates have the same extinction coefficient (E) as the carboxylic acid of the free fluorescent label, the final concentrations for all labeled products were calculated from UV-VIS absorption spectra at λ=493 nm (ε=73000 M^−1 cm^−1 at pH 7.2) for FAM conjugates (7a1-7a3, 7b1, 7c1, 7d1-7d2, 7e1-7e2, 7f1-7f2), λ=567.5 nm (ε=114850 M^−1cm^−1 at pH 7.5) for RhR-X conjugates (7a4, 7b2, 7c2), λ=580 nm (c=72000 M^−1cm^−1 at pH 8.0) for ROX conjugates (7a5, 7b3), λ=648 nm (ε=240000 M^−1cm^−1 at pH 7.2) for AF647 conjugates (7a6, 7b4, 7d3), λ=774 nm (ε=240000 M^−1cm^−1 at pH 7.4) for 800CW conjugates (7d4), λ=644 nm (ε=271000 M^−1cm^−1 at pH 7.4, 1×PBS) for Sulfo-Cy5 conjugates (7d5).\nEmission spectra for FAM and RhR-X conjugates were recorded using an excitation wavelength of 490 nm or 520 nm, respectively. Emission spectra for AF647 conjugates and Sulfo-Cy5 conjugates were recorded using an excitation wavelength of 600 nm. Emission spectra of 5(6)-ROX conjugates were recorded using an excitation wavelength of 575 nm. Emission spectra of IRDye CW800 conjugate was recorded using an excitation wavelength of 750 nm. The set-up of excitation slit, emission slit, integration time and increment were determined to get optimal spectra for each compound respectively, depending on the sample concentration and spectrometer used."}, "[5]": {"test": "Hydroxyapatite (HAP) column chromatography binding assay", "conditions": "pH 6.8, phosphate gradient 1 to 1000 mM; FIG. 3", "procedure": "The fast performance liquid chromatography (FPLC) system consisted of a Waters 650E advanced protein purification system (Millipore Corp., Waters chromatography division, Milford, Mass.), a 600E system controller and a 484 tunable absorbance detector for UV absorbance assessment. Ceramic hydroxyapatite [HAP, […], Macro-Prep® Ceramic Hydroxyapatite Type II 20 μm 100 g, Bio-Rad Laboratories, Inc. Hercules, Calif.] was equilibrated with 1 mM phosphate buffer (pH 6.8) and packed in a 0.66 cm (diameter)×6.5 cm (length) glass column (Omnifit, Bio-chem Valve™ inc., Cambridge, U.K.), which was attached to the Waters 650E advanced protein purification system. Each sample was prepared in 1 mM potassium phosphate buffer, and 100 μL of 1 mM (0.1 μmol) sample was injected into the FPLC system. As a consequence, the compounds were absorbed and subsequently eluted at a flow rate of 2 ml/min by using a linear concentration gradient of phosphate from 1 to 1000 mM at pH 6.8. Fractions of each sample were collected in 80 tubes using an automated fraction collector (Gilson, France) and then used for subsequent ultraviolet (SPECTRAmax PLUS 384, Molecular Devices, CA) or fluorescence spectrometry detection (WALLAC VICTOR™, 1420 MULTILABEL COUNTER, Perkin Elmer, USA). […] The elution profile for each sample was determined in triplicate for statistical analysis (Prism, GraphPad Software, USA). […]"}, "[6]": {"tested_on": "unprenylated Rap1A (uRap1A)", "test": "Prenylation assay: Western blot for unprenylated Rap1A in J774.2 macrophages", "format": "cell-based, mouse", "conditions": "10 or 100 μM, 24 h, FIG. 5A-C", "procedure": "To determine the effect of fluorescent BP probes on protein prenylation, J774.2 mouse macrophages were plated out at 2×10^5 cells/mL in 24-well plates and left to adhere overnight. Cells were then treated with 10 or 100 μM of fluorescent analogues of RIS, dRIS, and ZOL, the respective native BP, or vehicle, for 24 h. Cells were lysed in radioimmunoprecipitation buffer, and proteins were separated by sodium dodecyl sulfate polyacrylamide gel electrophoresis and transferred to polyvinyl difluoride membranes by western blotting. Membranes were then incubated with antibodies to the unprenylated form of Rap1A (uRap1A) and the housekeeping protein β-actin, which were detected by incubation with fluorescently-labeled secondary antibodies and scanning of membranes on a LI-COR Infrared Imager. Results shown are representative of 2 independent experiments. The ratio between abundance of unprenylated RaplA and β-actin is indicated for each sample below the blots in FIG. 5."}, "[7]": {"conditions": "pH 7.2, 0.1M phosphate buffer; assumed the same as the corresponding fluorescent dye; cited from earlier work"}},
  "data": [
    {"smiles": "O=P(O)(O)C(O)(Cc1cnc2ccccn12)P(=O)(O)O", "note": "[MIN, (1-Hydroxy-2-imidazo[1,2-a]pyridin-3-yl-1-phosphonoethyl)phosphonic acid]", "values": [
      {"measurement": "fraction of the heterocyclic nitrogen deprotonated", "setting": "[1]", "result": 22, "unit": "%"}
    ]},
    {"smiles": "O=C(O)C(O)(Cc1cccnc1)P(=O)(O)O", "note": "(centres unmarked) [RISPC, 2-hydroxy-2-phosphono-3-pyridin-3-ylpropanoic acid]", "values": [
      {"measurement": "rank order of mineral binding affinity", "setting": "[2]", "result": "RIS>dRIS>RISPC"},
      {"measurement": "activity in uRap1A and J774.2 cell viability screening assays", "setting": "[3]", "result": "much less active than the N-BPs"}
    ]},
    {"smiles": "O=P(O)(O)C(Cc1cccnc1)P(=O)(O)O", "note": "[dRIS, (2-pyridin-3-ylethane-1,1-diyl)bis(phosphonic acid)]", "values": [
      {"measurement": "rank order of mineral binding affinity", "setting": "[2]", "result": "RIS>dRIS>RISPC"}
    ]},
    {"smiles": "O=P(O)(O)C(O)(Cn1ccnc1)P(=O)(O)O", "note": "[ZOL, [1-hydroxy-2-(1H-imidazol-1-yl)ethane-1,1-diyl]bis(phosphonic acid)]", "values": [
      {"measurement": "fraction of the heterocyclic nitrogen deprotonated", "setting": "[1]", "result": 18, "unit": "%"}
    ]},
    {"smiles": "O=C(NCC(O)C[n+]1ccn(CC(O)(P(=O)(O)O)P(=O)(O)O)c1)c1ccc(C(=O)O)c(-c2c3ccc(=O)cc-3oc3cc(O)ccc23)c1", "note": "(centres unmarked) [Compound 6-FAM-ZOL, 3-(3-(4-carboxy-3-(6-hydroxy-3-oxo-3H-xanthen-9-yl)benzamido)-2-hydroxypropyl)-1-(2-hydroxy-2,2-diphosphonoethyl)-1H-imidazol-3-ium]", "values": [
      {"measurement": "Maximum absorption wavelength (λmax (abs), nm)", "setting": "[4]", "result": 493, "unit": "nm"},
      {"measurement": "Maximum emission wavelength (λmax (em), nm)", "setting": "[4]", "result": 516, "unit": "nm"},
      {"measurement": "HAP binding affinity (retention time on HAP column, normalized to RIS)", "setting": "[5]", "result": "slightly longer retention time on the HAP column than its 5-isomer"},
      {"measurement": "accumulation of unprenylated Rap1A (anti-prenylation activity)", "setting": "[6]", "result": "retain some activity, although their potencies are weaker than native ZOL"},
      {"measurement": "Extinction coefficient", "setting": "[7]", "result": "73,000 (pH 7.2) M^−1cm^−1"}
    ]},
    {"smiles": "O=C(O)C(O)(Cc1cnc2ccccn12)P(=O)(O)O", "note": "(centres unmarked) [MINPC, 2-hydroxy-3-imidazo[1,2-a]pyridin-3-yl-2-phosphonopropionic acid]", "values": [
      {"measurement": "activity in uRap1A and J774.2 cell viability screening assays", "setting": "[3]", "result": "much less active than the N-BPs"}
    ]}
  ]
}
